Source: article PMC3523327 (Bioorganic & medicinal chemistry letters, 2012)

molecular target: HIV-1 integrase (IN), 3′-processing (Human immunodeficiency virus type 1 group M subtype B, UniProt P12497); assay: in vitro IN assay, 3′-processing reaction; format: biochemical; details: not given

Which IC50 does the source give for CCCCc1c(O)c(O)c2c(c1S(=O)(=O)N(C)C)CN(Cc1ccc(F)c(Cl)c1)C2=O [Compound 5c-2] here?
Its IC50 is > 111 µM.

Which IC50 does the source give for Cc1cc2c(c(O)c1O)C(=O)N(Cc1ccc(F)c(Cl)c1)C2 [Compound 4b] here?
Its IC50 is > 111 µM.

For CC(C)c1c(O)c(O)c2c(c1S(=O)(=O)N1CCOCC1)CN(Cc1ccc(F)c(Cl)c1)C2=O [Compound 5d-10], which IC50 is on record?
Its IC50 is > 111 µM.

Which IC50 does the source give for O=C1c2c(cc(-c3ccccc3)c(O)c2O)CN1Cc1ccc(F)c(Cl)c1 [Compound 4e] here?
Its IC50 is > 111 µM.

For CN(C)S(=O)(=O)c1ccc(-c2cc3c(c(O)c2O)C(=O)N(Cc2ccc(F)c(Cl)c2)C3)cc1 [Compound 4h], which IC50 is on record?
Its IC50 is > 111 µM.

For CC(C)c1c(O)c(O)c2c(c1S(=O)(=O)N(C)C)CN(Cc1ccc(F)c(Cl)c1)C2=O [Compound 5d-2], which IC50 is on record?
The IC50 was > 111 µM.

Which IC50 does the source give for CCCCc1cc2c(c(O)c1O)C(=O)N(Cc1ccc(F)c(Cl)c1)C2 [Compound 4c] here?
The IC50 was > 111 µM.

With CC(C)c1cc2c(c(O)c1O)C(=O)N(Cc1ccc(F)c(Cl)c1)C2 [Compound 4d] as the molecule, how does the IC50 read?
Its IC50 is > 111 µM.

molecular target: HIV-1 integrase (IN), strand transfer (Human immunodeficiency virus type 1 group M subtype B, UniProt P12497); assay: in vitro IN assay, strand transfer reaction; format: biochemical; details: ST IC50 of 5d-2 versus 4d

For CC(C)c1c(O)c(O)c2c(c1S(=O)(=O)N(C)C)CN(Cc1ccc(F)c(Cl)c1)C2=O [Compound 5d-2], which “enhancement in the ST reaction relative to parent 4d” value is on record?
Its value is 20 fold.

system: HIV-1 vector with N155H IN mutant; assay: not given; details: cellular studies, HIV vectors bearing N155H mutant; ref [25]; cited from earlier work

With Cc1nnc(C(=O)NC(C)(C)c2nc(C(=O)NCc3ccc(F)cc3)c(O)c(=O)n2C)o1 [raltegravir] as the molecule, how does the “loss of antiviral potency” value read?
The value was ~40 fold.
